Experimental data as given in the NIST ThermoML archive (doi:10.1007/s10765-013-1487-y).
“And” between values parts separate entries of the source, which are not always exact repeats. Identical values can stand only once.

Conditions: 101.33 kPa, Liquid; for mass density: Vibrating tube method

CCCCCC[n+]1ccn(C)c1.O=S(=O)([N-]S(=O)(=O)C(F)(F)F)C(F)(F)F
Capillary tube (Ostwald / Ubbelohde) method
Conditions | viscosity [mPa·s]
293.25 K | 89.98
298.19 K | 71.11

CCOS(=O)(=O)[O-].CCn1cc[n+](C)c1 [1-ethyl-3-methylimidazolium ethyl sulfate]
Conditions | mass density
290.65 K | 1243.24 kg/m3
290.66 K | 1243.24 kg/m3
293.15 K | 1241.55 kg/m3
293.16 K | 1241.54 kg/m3
295.65 K | 1239.85 kg/m3
298.15 K | 1238.14 kg/m3 and 1238.15 kg/m3
298.16 K | 1238.15 kg/m3
300.65 K | 1236.44 kg/m3 and 1236.46 kg/m3
300.66 K | 1236.45 kg/m3
303.15 K | 1234.75 kg/m3 and 1234.76 kg/m3
305.64 K | 1233.06 kg/m3
305.65 K | 1233.06 kg/m3
305.66 K | 1233.06 kg/m3
308.14 K | 1231.37 kg/m3
308.15 K | 1231.37 kg/m3
308.16 K | 1231.37 kg/m3
310.64 K | 1229.68 kg/m3 and 1229.69 kg/m3
310.66 K | 1229.68 kg/m3
313.15 K | 1228 kg/m3
315.64 K | 1226.32 kg/m3
315.66 K | 1226.31 kg/m3
318.15 K | 1224.63 kg/m3 and 1224.64 kg/m3
320.65 K | 1222.96 kg/m3

viscosity [mPa·s]
Conditions | 293.14 K | 293.23 K | 298.18 K | 298.19 K | 303.15 K | 308.21 K | 313.14 K | 318.13 K
Capillary tube (Ostwald / Ubbelohde) method | – | 128.62 | 99.37 | – | – | – | – | –
Vibrating wire viscometry | 125.7 | – | – | 97.19 | 76.8 | 61.42 | 50.05 | 41.42

CCOS(=O)(=O)[O-].CC[n+]1cccc(C)c1 [1-ethyl-3-methylpyridinium ethylsulfate]
Capillary tube (Ostwald / Ubbelohde) method
Conditions | viscosity [mPa·s]
293.16 K | 182.68
298.13 K | 135.35
